“Also recorded” adds a separate entry of the source. Read-outs that look alike come from different tables or passages of the source.
What was measured:
NMRI-Mäuse = format: in vivo; conditions: i. p., without DAc-SP5
Source text: Der Einfluß von DAc-SP5 und immunsuppressiv wirkenden Verbindungen auf die Antigen-spezifische IgM-Antwort bei Mäusen wurde untersucht. Die erhaltenen Ergebnisse sind in den Fig.1 und 2 dargestellt.
DAc-SP5 rekonstituiert bereits durch wenige aufeinanderfolgende Applikationen die chemisch induzierts Suppression der humoralen Immunantwort.

männlichen Balb/c-Mäusen = conditions: in vivo
AB/Bln.-Mäuse = experiment: Antibody formation against sheep erythrocytes (Jerne plaque test) after sublethal X-ray irradiation; format: in vivo; conditions: 600 c Gy; 10 or 50 µg i.p. every second day; untreated irradiated animals 48 days
Source text: N^ε-MAc-SP5 (Sequenz 32 bis 36 des Milzhormons Splenin) hat die gleichen bzw. ähnliche immunbiologische Wirkungen wie das Gesamtmolekül Splenin. […] Funktionstüchtige T-Helferlymphocyten stimulieren die Antikörperbildung. Zum Nachweis einer Erhöhung der Antikörper-Bildung durch N^ε-MAc-SP5 wurde ein relevantes tierexperimentelles Modell gewählt: AB/Bln.-Mäuse wurden mit Röntgenstrahlen subletal bestrahlt und danach mit bzw. ohne N^ε-MAc-SP5 therapiert. Gleichzeitig erfolgte die Immunisierung der Tiere mit Schafserythrocyten. Da subletal bestrahlte Tiere die Fähigkeit verlieren, quantitativ ausreichend Antikörper zu produzieren, ist eine vermehrte Bildung von Antikörpern gegen Schafserythrocyten bei den mit N^ε-MAc-SP5 behandelten Tieren ein Maß für die Regeneration des Immunsystems durch N^ε-MAc-SP5. Mit N^ε-MAc-SP5 behandelte Tiere konnten bereits nach 34 Tagen Antikörper in gleicher Menge wie unbestrahlte Kontrolltiere bilden. Im Vergleich dazu waren nicht mit N^ε-MAc-SP5 behandelte Tiere dazu erst 48 Tage nach der einmaligen Röntgenbestrahlung befähigt. […]

[1] = system: Lymphocyten der SLE-Patienten; experiment: 3H-thymidine incorporation of lymphocytes of SLE patients; format: cell-based, Mensch; conditions: after contact with N^ε-MAc-SP5; n = 5; no significant deviation from no contact (t-test)
Source text: T4-Antigene nehmen zu, wenn sich T4-Zellen vermehren bzw., wenn die Antigene vermehrt auf ihrer Oberfläche exprimiert werden. Die Untersuchungen ergaben, daß die Lymphocyten der SLE-Patienten nach Kontakt mit N^ε-MAc-SP5 keine erhöhten ³H-Thymidineinbauraten aufwiesen (910 ± 180 Impulse je Minute ohne N^ε-MAc-SP-5-Kontakt/820 ± 210 Impulse je Minute nach Kontakt mit N^ε-MAc-SP5; n = 5, keine signifikante Abweichung im t-Test). Es ist daher anzunehmen, daß die Zunahme der T4-Antigene nicht durch eine Vermehrung von T4-Zellen zustandekommt, sondern Folge einer strukturellen Veränderung der T-Zelloberfläche, möglicherweise identisch mit einem "Reifeprozeß" der Zelle, ist.

[2] = system: T4-Antigenen auf der Oberfläche menschlicher Lymphocyten; experiment: Increase of T4 antigens on the surface of human lymphocytes of SLE patients in vitro (monoclonal antibodies); format: cell-based, Mensch
Source text: N^ε-MAc-SP5 (Sequenz 32 bis 36 des Milzhormons Splenin) hat die gleichen bzw. ähnliche immunbiologische Wirkungen wie das Gesamtmolekül Splenin. […] Funktionstüchtige T-Helferlymphocyten stimulieren die Antikörperbildung. Zum Nachweis einer Erhöhung der Antikörper-Bildung durch N^ε-MAc-SP5 wurde ein relevantes tierexperimentelles Modell gewählt: AB/Bln.-Mäuse wurden mit Röntgenstrahlen subletal bestrahlt und danach mit bzw. ohne N^ε-MAc-SP5 therapiert. Gleichzeitig erfolgte die Immunisierung der Tiere mit Schafserythrocyten. Da subletal bestrahlte Tiere die Fähigkeit verlieren, quantitativ ausreichend Antikörper zu produzieren, ist eine vermehrte Bildung von Antikörpern gegen Schafserythrocyten bei den mit N^ε-MAc-SP5 behandelten Tieren ein Maß für die Regeneration des Immunsystems durch N^ε-MAc-SP5. Mit N^ε-MAc-SP5 behandelte Tiere konnten bereits nach 34 Tagen Antikörper in gleicher Menge wie unbestrahlte Kontrolltiere bilden. Im Vergleich dazu waren nicht mit N^ε-MAc-SP5 behandelte Tiere dazu erst 48 Tage nach der einmaligen Röntgenbestrahlung befähigt.
Funktionstüchtige (reife) T-Helferlymphocyten besitzen auf ihrer Oberfläche T4-Antigene, T-Suppressorlymphocyten T8-Antigene. Bei Patienten mit Systemischem Lupus Erythematodes (SLE) wurde mittels monoklonaler Antikörper ein verminderter Gehalt von T4-Antigenen auf der Lymphocytenoberfläche bestimmt. […]

In the case of `O=P1(N(CCCl)CCCl)NCCCO1` (centres unmarked) [Cyclophosphamid], the “Antigen-spezifischen IgM-Antwort” value (NMRI-Mäuse; single dose 7,2 mg/Tier) is reported as “nahezu vollständige Suppression”.
In the case of `C[C@@H]1C[C@H]2[C@@H]3CCC4=CC(=O)C=C[C@]4(C)[C@@]3(F)[C@@H](O)C[C@]2(C)[C@@]1(O)C(=O)CO` [Dexamethason], the “Antigen-spezifischen IgM-Antwort” value (NMRI-Mäuse; 0,2 mg/Tier or 0,08 mg/Tier) is reported as “Reduktion”.
`CCO` [Ethanol] was tested, and the “% phagocytierende Peritonealzellen” value (männlichen Balb/c-Mäusen) was 29,0±1,7%, the “Milzmasse (mg)” value (männlichen Balb/c-Mäusen) was 60,0±3,2 mg and the Phagocytoseindex (männlichen Balb/c-Mäusen) was 3,0±0,08. The “Plaque-bildende Zellen der Milz pro 10⁶ Zellen (Jerne-Plaquetest)” value (männlichen Balb/c-Mäusen) was 61,3±3,8 pro 10⁶ Zellen and the “Thymusmasse (mg)” value (männlichen Balb/c-Mäusen) was 15,0±2,6 mg.
For “Arginyl(N^ε-acetyl-lysyl)glutamylvalyl)tyrpsin [N^ε-MAc-SP5]”, the “time after X-ray irradiation until Antikörper in gleicher Menge wie unbestrahlte Kontrolltiere” value (AB/Bln.-Mäuse) was 34 Tage, the ³H-Thymidineinbauraten [1] was 820 ± 210 Impulse je Minute and the “TB-Antigene (Oberflächenantigene auf T-Suppressorlymphocyten bzw. cytotoxischen T-Lymphocyten)” value ([2]; lymphocytes of SLE patients after contact with N^ε-MAc-SP5) was “veränderten sich dagegen quantitativ nicht”. The “Anzahl von T4-Antigenen” value ([2]; lymphocytes of SLE patients before therapy, 2 h incubation with N^ε-MAc-SP5) was “quantitative Zunahme von T4-Antigenen; also recorded: permanent erhöhte Anzahl von T4-Antigenen”.

From patent EP0307553B1, “Modified splenopentines, their process of preparation and their use” (priority 1987, dated 1989)
